Source: ChEMBL document CHEMBL1201862, “PubChem BioAssay data set” (2004)
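Protocol summary: plate cells (96-well), add compound at 5 concentrations, incubate 48 h, interpolate endpoints linearly. Abbreviation: GI50, concentration required for 50% inhibition of growth.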 Active and inactive are the calls of the source. No stated cut-off is given here; in the data, active = GI50 up to about 1.1 µM and inactive = higher.

Legend:
Experiment in all cases: NCI tumour cell line growth inhibition, 48 h
[1] = test system: 786-0
[2] = test system: A498
[3] = test system: A549
[4] = test system: ACHN
[5] = test system: BT-549
[6] = test system: CAKI-1
[7] = test system: CCRF-CEM
[8] = test system: COLO 205
[9] = test system: DU-145
[10] = test system: EKVX
[11] = test system: HCC 2998
[12] = test system: HCT-116
[13] = test system: HCT-15
[14] = test system: HL-60
[15] = test system: HOP-62
[16] = test system: HOP-92
[17] = test system: HT-29
[18] = test system: Hs-578T
[19] = test system: IGROV-1
[20] = test system: K562
[21] = test system: KM12
[22] = test system: M14
[23] = test system: MCF7
[24] = test system: MDA-MB-231
[25] = test system: MDA-MB-435
[26] = test system: MDA-N
[27] = test system: MOLT-4
[28] = test system: Malme-3M
[29] = test system: NCI-H226
[30] = test system: NCI-H23
[31] = test system: NCI-H460
[32] = test system: NCI-H522
[33] = test system: NCI/ADR-RES
[34] = test system: OVCAR-3
[35] = test system: OVCAR-4
[36] = test system: OVCAR-5
[37] = test system: OVCAR-8
[38] = test system: PC-3
[39] = test system: RPMI-8226
[40] = test system: RXF 393
[41] = test system: SF-268
[42] = test system: SF-295
[43] = test system: SF-539
[44] = test system: SK-MEL-28
[45] = test system: SK-MEL-2
[46] = test system: SK-MEL-5
[47] = test system: SK-OV-3
[48] = test system: SN12C
[49] = test system: SNB-19
[50] = test system: SNB-75
[51] = test system: SR
[52] = test system: T47D
[53] = test system: TK-10
[54] = test system: U-251
[55] = test system: UACC-257
[56] = test system: UACC-62
[57] = test system: UO-31
[58] = test system: LOX IMVI
[59] = test system: SW-620

With `COC(=O)c1c(OC(C)=O)ccc2c1c1c(OC(C)=O)c3ccccc3c(OC(C)=O)c1n2Cc1ccccc1` the GI50 [1] was 12.1 µM (inactive), the GI50 [2] was 13.7 µM (inactive) and the GI50 [3] was 2.75 µM (inactive). The GI50 [4] was 11.8 µM (inactive), the GI50 [5] was 4.76 µM (inactive) and the GI50 [6] was 9.62 µM (inactive). For the same molecule, the GI50 [7] was 6.68 µM (inactive), the GI50 [8] was 7.91 µM (inactive) and the GI50 [9] was 11.1 µM (inactive). For the same molecule, the GI50 [10] was 2.56 µM (inactive), the GI50 [11] was 1.85 µM (inactive) and the GI50 [12] was 3.96 µM (inactive). The GI50 [13] was 4.78 µM, the GI50 [14] was 3.33 µM (inactive) and the GI50 [15] was 8.61 µM (inactive). For the same molecule, the GI50 [16] was 0.658 µM (active), the GI50 [17] was 12.2 µM (inactive) and the GI50 [18] was 16.9 µM (inactive). The GI50 [19] was 4.09 µM (inactive), the GI50 [20] was 5.33 µM (inactive) and the GI50 [21] was 1.49 µM (inactive). For the same molecule, the GI50 [22] was 2.93 µM (inactive), the GI50 [23] was 13.5 µM (inactive) and the GI50 [24] was 4.09 µM (inactive). For the same molecule, the GI50 [25] was 9.95 µM (inactive), the GI50 [26] was 14.2 µM (inactive) and the GI50 [27] was 7.46 µM (inactive). The GI50 [28] was 7.8 µM (inactive), the GI50 [29] was 10.9 µM (inactive) and the GI50 [30] was 6.03 µM (inactive). The GI50 [31] was 2.24 µM (inactive), the GI50 [32] was 0.783 µM (active) and the GI50 [33] was 7.06 µM (inactive). For the same molecule, the GI50 [34] was 1.21 µM (inactive), the GI50 [35] was 2.39 µM (inactive) and the GI50 [36] was 7.46 µM (inactive). For the same molecule, the GI50 [37] was 9.44 µM (inactive), the GI50 [38] was 1.55 µM (inactive) and the GI50 [39] was 1.52 µM (inactive). For the same molecule, the GI50 [40] was 5.77 µM (inactive), the GI50 [41] was 3.44 µM (inactive) and the GI50 [42] was 2.55 µM (inactive). For the same molecule, the GI50 [43] was 1.61 µM (inactive), the GI50 [44] was 9.77 µM (inactive) and the GI50 [45] was 1.37 µM (inactive). The GI50 [46] was 3.02 µM (inactive), the GI50 [47] was 3.67 µM (inactive) and the GI50 [48] was 10.5 µM (inactive). For the same molecule, the GI50 [49] was 9.51 µM (inactive), the GI50 [50] was 1.76 µM (inactive) and the GI50 [51] was 1.64 µM (inactive). The GI50 [52] was 1.16 µM (inactive), the GI50 [53] was 13 µM (inactive) and the GI50 [54] was 2.43 µM (inactive). For the same molecule, the GI50 [55] was 16.3 µM (inactive), the GI50 [56] was 2.72 µM (inactive) and the GI50 [57] was 2.21 µM (inactive).
In the case of `CCOC(=O)CNC(=O)C(CSC(=O)N(O)c1ccc(Br)cc1)NC(=O)CCC(N)C(=O)OCC` (centres undefined), the GI50 [1] is reported as > 50 µM (inactive), the GI50 [2] is reported as > 50 µM (inactive) and the GI50 [3] is reported as > 50 µM (inactive). The GI50 [4] was > 50 µM (inactive), the GI50 [5] was > 50 µM (inactive) and the GI50 [6] was > 50 µM (inactive). The GI50 [7] was 27.4 µM (inactive), the GI50 [8] was > 50 µM (inactive) and the GI50 [9] was > 50 µM (inactive). For the same molecule, the GI50 [10] was > 50 µM (inactive), the GI50 [11] was > 50 µM (inactive) and the GI50 [12] was > 50 µM (inactive). For the same molecule, the GI50 [13] was greater than 50 µM, the GI50 [14] was 0.005 µM (active) and the GI50 [15] was > 50 µM (inactive). The GI50 [16] was 8.45 µM (inactive), the GI50 [17] was > 50 µM (inactive) and the GI50 [18] was > 50 µM (inactive). For the same molecule, the GI50 [19] was > 50 µM (inactive), the GI50 [20] was 41.9 µM (inactive) and the GI50 [21] was 45.8 µM (inactive). The GI50 [58] was 40.1 µM (inactive), the GI50 [22] was > 50 µM (inactive) and the GI50 [23] was > 50 µM (inactive). For the same molecule, the GI50 [24] was > 50 µM (inactive), the GI50 [25] was 24.4 µM (inactive) and the GI50 [26] was > 50 µM (inactive). For the same molecule, the GI50 [27] was 2.96 µM (inactive), the GI50 [28] was > 50 µM (inactive) and the GI50 [29] was > 50 µM (inactive). For the same molecule, the GI50 [30] was > 50 µM (inactive), the GI50 [31] was > 50 µM (inactive) and the GI50 [32] was > 50 µM (inactive). The GI50 [33] was > 50 µM (inactive), the GI50 [34] was > 50 µM (inactive) and the GI50 [35] was > 50 µM (inactive). The GI50 [36] was > 50 µM (inactive), the GI50 [37] was > 50 µM (inactive) and the GI50 [38] was > 50 µM (inactive). The GI50 [39] was 21 µM (inactive), the GI50 [40] was > 50 µM (inactive) and the GI50 [41] was > 50 µM (inactive). For the same molecule, the GI50 [42] was > 50 µM (inactive), the GI50 [43] was > 50 µM (inactive) and the GI50 [44] was > 50 µM (inactive). The GI50 [45] was > 50 µM (inactive), the GI50 [46] was > 50 µM (inactive) and the GI50 [47] was > 50 µM (inactive). The GI50 [48] was > 50 µM (inactive), the GI50 [49] was > 50 µM (inactive) and the GI50 [51] was > 50 µM (inactive). For the same molecule, the GI50 [59] was 45.1 µM (inactive), the GI50 [52] was > 50 µM (inactive) and the GI50 [54] was > 50 µM (inactive). For the same molecule, the GI50 [55] was > 50 µM (inactive), the GI50 [56] was > 50 µM (inactive) and the GI50 [57] was > 50 µM (inactive).
